The source of these data is ChEMBL document CHEMBL1152536, “Molecular modeling of human acidic mammalian chitinase in complex with the natural-product cyclopentapeptide chitinase inhibitor argifin” (Bioorg Med Chem, 2009).

This experiment concerns the target Acidic mammalian chitinase (Homo sapiens, UniProt Q9BZP6). As to the kind of experiment: Inhibition of human acidic mammalian chitinase.

Chain of Acidic mammalian chitinase (Q9BZP6 whole entry): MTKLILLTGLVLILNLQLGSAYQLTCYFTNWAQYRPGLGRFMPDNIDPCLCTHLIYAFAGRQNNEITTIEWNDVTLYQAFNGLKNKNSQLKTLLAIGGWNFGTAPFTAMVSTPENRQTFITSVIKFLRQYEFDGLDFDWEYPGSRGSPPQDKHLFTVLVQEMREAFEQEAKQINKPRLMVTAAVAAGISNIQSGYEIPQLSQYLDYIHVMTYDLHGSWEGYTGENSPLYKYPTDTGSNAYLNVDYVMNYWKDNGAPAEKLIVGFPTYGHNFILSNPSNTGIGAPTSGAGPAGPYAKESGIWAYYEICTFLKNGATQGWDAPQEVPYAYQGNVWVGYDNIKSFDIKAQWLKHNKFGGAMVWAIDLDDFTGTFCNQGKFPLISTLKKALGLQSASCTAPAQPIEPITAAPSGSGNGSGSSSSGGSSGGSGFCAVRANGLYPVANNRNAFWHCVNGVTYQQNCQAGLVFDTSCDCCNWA

A word on the IC50: it is the concentration at which inhibition is half-maximal. Consider `CNC(=O)NC(=N)NCCC[C@@H]1NC(=O)[C@@H](C)NC(=O)C[C@@H](C(=O)O)NC(=O)C[C@@H](C(=O)O)NC(=O)[C@H](Cc2ccccc2)N(C)C1=O` [ARGIFIN], for which the IC50 came out at 4.5 µM.
